Test results from US20250136578A1 (Kolm Therapeutics Inc., priority 2023, published 2025).
Where two headings read alike, the source gives them in different places.

What was measured:
AR / CBP ternary complex = AR / CBP ternary complex (Homo sapiens, UniProt P10275+Q92793); assay: Ternary complex formation assay (sandwich ELISA, AR capture, CBP antibody detection) in VCaP cell lysates; format: cell-based
Summary of the method: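 Sandwich ELISA: plates were coated with anti-AR antibody (AR441) and given lysates of VCaP cells treated 1.5 h with bifunctional compound in charcoal-stripped serum. Co-captured CBP or p300 was probed with rabbit mAbs and HRP secondary. Chemifluorescent signal (ex 570/em 585) was read at 0, 5 and 15 min.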

VCaP cells = assay: VCaP growth inhibition assay (CTG); format: cell-based; details: 30 pM R1881, 9 days
Summary of the method: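 Growth was measured by CTG luminescence after a 9-day exposure of VCaP cells to compound (final 10 fM–100 nM, fivefold steps) in the presence of 30 pM final R1881, in phenol red-free DMEM/5% CSS. IC50 values were derived by nonlinear 4-parameter regression of RLU against concentration.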

[1] = treated 1.5 hours, rabbit CBP or p300 antibody detection, average, read-out: Average Ternary Complex

AR / CBP ternary complex, sequence (P10275 whole entry): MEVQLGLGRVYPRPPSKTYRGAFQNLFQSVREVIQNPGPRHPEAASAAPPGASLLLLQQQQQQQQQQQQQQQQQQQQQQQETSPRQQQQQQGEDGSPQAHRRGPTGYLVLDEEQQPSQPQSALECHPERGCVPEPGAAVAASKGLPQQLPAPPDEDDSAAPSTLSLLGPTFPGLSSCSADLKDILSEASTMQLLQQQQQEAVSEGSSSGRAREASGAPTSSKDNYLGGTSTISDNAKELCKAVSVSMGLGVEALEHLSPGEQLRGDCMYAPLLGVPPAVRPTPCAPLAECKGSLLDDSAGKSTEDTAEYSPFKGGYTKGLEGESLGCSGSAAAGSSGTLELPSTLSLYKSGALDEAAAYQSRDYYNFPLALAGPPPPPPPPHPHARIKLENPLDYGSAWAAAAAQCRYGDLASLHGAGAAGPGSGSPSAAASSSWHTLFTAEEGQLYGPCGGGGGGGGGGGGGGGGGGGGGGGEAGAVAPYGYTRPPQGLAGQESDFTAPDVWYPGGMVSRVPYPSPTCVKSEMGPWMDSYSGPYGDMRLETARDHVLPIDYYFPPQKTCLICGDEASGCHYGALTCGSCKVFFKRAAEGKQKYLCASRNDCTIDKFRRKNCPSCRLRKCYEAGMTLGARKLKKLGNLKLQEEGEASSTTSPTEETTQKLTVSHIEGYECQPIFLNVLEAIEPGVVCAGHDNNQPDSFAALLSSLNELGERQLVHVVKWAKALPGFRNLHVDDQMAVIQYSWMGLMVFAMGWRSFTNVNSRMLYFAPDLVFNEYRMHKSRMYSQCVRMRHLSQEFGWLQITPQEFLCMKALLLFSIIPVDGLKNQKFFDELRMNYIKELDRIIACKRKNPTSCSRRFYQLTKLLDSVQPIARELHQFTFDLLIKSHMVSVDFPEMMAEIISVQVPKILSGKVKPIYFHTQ
AR / CBP ternary complex, sequence (Q92793 2-2442): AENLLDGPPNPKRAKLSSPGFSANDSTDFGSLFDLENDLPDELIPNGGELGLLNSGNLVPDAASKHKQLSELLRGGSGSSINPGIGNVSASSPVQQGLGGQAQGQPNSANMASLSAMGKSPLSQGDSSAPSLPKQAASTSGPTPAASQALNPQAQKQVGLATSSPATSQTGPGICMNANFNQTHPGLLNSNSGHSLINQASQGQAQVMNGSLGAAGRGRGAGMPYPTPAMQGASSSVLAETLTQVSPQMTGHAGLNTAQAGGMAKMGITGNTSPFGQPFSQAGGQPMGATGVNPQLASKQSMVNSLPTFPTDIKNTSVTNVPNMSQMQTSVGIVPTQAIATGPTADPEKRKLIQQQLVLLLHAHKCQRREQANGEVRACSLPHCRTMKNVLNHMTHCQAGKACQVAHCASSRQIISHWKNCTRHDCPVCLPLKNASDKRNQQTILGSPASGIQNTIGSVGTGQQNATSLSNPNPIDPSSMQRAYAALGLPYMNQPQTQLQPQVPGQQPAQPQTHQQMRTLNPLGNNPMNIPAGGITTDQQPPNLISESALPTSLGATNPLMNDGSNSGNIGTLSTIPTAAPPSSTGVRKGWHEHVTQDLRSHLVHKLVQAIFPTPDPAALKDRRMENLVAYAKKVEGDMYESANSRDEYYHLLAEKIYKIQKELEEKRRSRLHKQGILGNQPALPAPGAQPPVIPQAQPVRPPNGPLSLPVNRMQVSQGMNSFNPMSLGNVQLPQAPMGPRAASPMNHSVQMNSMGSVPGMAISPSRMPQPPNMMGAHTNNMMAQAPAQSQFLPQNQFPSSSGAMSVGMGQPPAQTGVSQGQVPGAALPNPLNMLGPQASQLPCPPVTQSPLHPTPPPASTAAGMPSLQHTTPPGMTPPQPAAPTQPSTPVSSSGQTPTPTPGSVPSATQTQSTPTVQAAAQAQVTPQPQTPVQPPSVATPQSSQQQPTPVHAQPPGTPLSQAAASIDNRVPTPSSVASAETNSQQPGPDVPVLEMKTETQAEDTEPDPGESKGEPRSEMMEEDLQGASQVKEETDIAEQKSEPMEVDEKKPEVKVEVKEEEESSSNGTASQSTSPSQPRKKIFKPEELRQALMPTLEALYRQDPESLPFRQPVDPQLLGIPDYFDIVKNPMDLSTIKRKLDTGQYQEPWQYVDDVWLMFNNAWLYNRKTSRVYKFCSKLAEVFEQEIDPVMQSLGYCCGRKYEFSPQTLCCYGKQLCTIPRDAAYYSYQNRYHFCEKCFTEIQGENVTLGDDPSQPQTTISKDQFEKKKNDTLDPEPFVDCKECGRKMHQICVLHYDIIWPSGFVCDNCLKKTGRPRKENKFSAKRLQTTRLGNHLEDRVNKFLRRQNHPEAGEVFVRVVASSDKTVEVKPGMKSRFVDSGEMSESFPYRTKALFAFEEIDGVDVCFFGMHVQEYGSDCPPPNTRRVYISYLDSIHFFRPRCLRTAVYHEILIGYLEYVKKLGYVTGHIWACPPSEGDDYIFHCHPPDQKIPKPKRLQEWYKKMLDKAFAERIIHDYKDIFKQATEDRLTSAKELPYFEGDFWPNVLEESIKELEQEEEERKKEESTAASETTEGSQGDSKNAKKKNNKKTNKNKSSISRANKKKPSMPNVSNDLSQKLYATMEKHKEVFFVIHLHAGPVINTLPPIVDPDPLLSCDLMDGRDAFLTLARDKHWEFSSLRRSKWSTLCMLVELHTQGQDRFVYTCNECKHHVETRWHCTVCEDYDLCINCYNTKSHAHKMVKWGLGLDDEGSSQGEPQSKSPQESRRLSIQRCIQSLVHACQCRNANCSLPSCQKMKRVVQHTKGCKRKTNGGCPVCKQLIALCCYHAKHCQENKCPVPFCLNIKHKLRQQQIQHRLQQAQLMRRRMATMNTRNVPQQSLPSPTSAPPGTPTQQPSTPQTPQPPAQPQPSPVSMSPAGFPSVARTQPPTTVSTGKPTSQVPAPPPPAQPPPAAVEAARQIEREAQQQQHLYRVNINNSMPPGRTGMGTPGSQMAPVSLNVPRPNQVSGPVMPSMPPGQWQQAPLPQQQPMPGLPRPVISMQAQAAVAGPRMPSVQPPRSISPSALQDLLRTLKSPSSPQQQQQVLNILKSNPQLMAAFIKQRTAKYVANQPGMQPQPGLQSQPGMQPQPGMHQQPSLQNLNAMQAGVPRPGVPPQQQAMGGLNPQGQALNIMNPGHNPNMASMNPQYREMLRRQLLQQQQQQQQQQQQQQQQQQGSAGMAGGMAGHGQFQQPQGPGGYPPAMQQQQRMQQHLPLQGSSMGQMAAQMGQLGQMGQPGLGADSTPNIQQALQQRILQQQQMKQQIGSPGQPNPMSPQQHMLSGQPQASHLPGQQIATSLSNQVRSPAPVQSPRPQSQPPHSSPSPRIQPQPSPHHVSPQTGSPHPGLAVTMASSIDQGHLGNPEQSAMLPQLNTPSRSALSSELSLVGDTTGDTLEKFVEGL

Row | Compound | EC50 (AR / CBP ternary complex; [1]) [nM] | IC50 (VCaP cells) [nM] | IC50 (VCaP cells; Homo sapiens, 216 h) [nM] | EC50 (AR / CBP ternary complex; read-out: Average Ternary Complex, treated 1.5 hours, rabbit CBP or p300 antibody detection) [nM]
1 | CC(=O)N1CCc2c(c(N3CCCc4cc(-c5cnn(C)c5)c(C(F)F)cc43)nn2C2CCN(C[C@H]3CCN(c4ccc(C(=O)N[C@H]5CC[C@H](Oc6ccc(C#N)c(Cl)c6)CC5)nn4)C[C@H]3C)CC2)C1 (stereo in doubt) [Compound 101, 6-[4-[[4-[5-acetyl-3-[7-(difluoromethyl)-6-(1-methylpyrazol-4-yl)-3,4-dihydro-2H-quinolin-1-yl]-6,7-dihydro-4H-pyrazolo[4,3-c]pyridin-1-yl]-1-piperidyl]methyl]-3-methyl-1-piperidyl]-N-[4-(3-chloro-4-cyano-phenoxy)cyclohexyl]pyridazine-3-carboxamide] | < 1 | ≤ 0.1 | – | –
2 | CC(=O)N1CCc2c(c(-c3cccc4cc(-c5ccc(CCC6CCN(c7ccc(C(=O)N[C@H]8CC[C@H](Oc9ccc(C#N)c(Cl)c9)CC8)cn7)CC6)cc5)ncc34)nn2C2CCOCC2)C1 [Compound 166, 6-[4-[2-[4-[8-(5-acetyl-1-tetrahydropyran-4-yl-6,7-dihydro-4H-pyrazolo[4,3-c]pyridin-3-yl)-3-isoquinolyl]phenyl]ethyl]-1-piperidyl]-N-[4-(3-chloro-4-cyano-phenoxy)cyclohexyl]pyridine-3-carboxamide] | < 1 | – | 0.1 to 1 | –
3 | CC(=O)N1CCc2c(c(N3CCCc4cc(C#N)ncc43)nn2C2CCN(CC3CCN(c4ccc(C(=O)N[C@H]5CC[C@H](Oc6ccc(C#N)c(Cl)c6)CC5)nn4)CC3)CC2)C1 [Compound 68, 6-[4-[[4-[5-acetyl-3-(6-cyano-3,4-dihydro-2H-1,7-naphthyridin-1-yl)-6,7-dihydro-4H-pyrazolo[4,3-c]pyridin-1-yl]-1-piperidyl]methyl]-1-piperidyl]-N-[4-(3-chloro-4-cyano-phenoxy)cyclohexyl]pyridazine-3-carboxamide] | < 1 | – | ≤ 0.1 | –
4 | CO[C@@H]1CN(c2ccc(C(=O)N[C@H]3CC[C@H](Oc4ccc(C#N)c(Cl)c4)CC3)nn2)CC[C@@H]1CN1CCC(n2nc(N3CCCc4cc(-c5cnn(C)c5)c(C(F)F)cc43)c3c2CCN(C(C)=O)C3)CC1 [Compound 219, 6-[4-[[4-[5-acetyl-3-[7-(difluoromethyl)-6-(1-methylpyrazol-4-yl)-3,4-dihydro-2H-quinolin-1-yl]-6,7-dihydro-4H-pyrazolo[4,3-c]pyridin-1-yl]-1-piperidyl]methyl]-3-methoxy-1-piperidyl]-N-[4-(3-chloro-4-cyano-phenoxy)cyclohexyl] pyridazine-3-carboxamide] | < 1 | – | ≤ 0.1 | –
5 | CC(=O)N1CCc2c(c(-c3cccc4nc(-c5ccc(CCC6CCN(c7ccc(C(=O)N[C@H]8CC[C@H](Oc9ccc(C#N)c(Cl)c9)CC8)nn7)CC6)nc5)ncc34)nn2C2CCOCC2)C1 [Compound 73, 6-[4-[2-[5-[5-(5-acetyl-1-tetrahydropyran-4-yl-6,7-dihydro-4H-pyrazolo[4,3-c]pyridin-3-yl)quinazolin-2-yl]-2-pyridyl]ethyl]-1-piperidyl]-N-[4-(3-chloro-4-cyano-phenoxy)cyclohexyl]pyridazine-3-carboxamide] | < 1 | – | ≤ 0.1 | –
6 | CC(=O)N1CCc2c(c(N3CCCc4cc(-c5cnn(C)c5)c(C(F)F)cc43)nn2[C@H]2CC[C@@H](CN3CCN(c4ccc(C(=O)N[C@H]5CC[C@H](Oc6ccc(C#N)c(Cl)c6)CC5)nn4)CC3)CC2)C1 [Compound 210, 6-[4-[[4-[5-acetyl-3-[7-(difluoromethyl)-6-(1-methylpyrazol-4-yl)-3,4-dihydro-2H-quinolin-1-yl]-6,7-dihydro-4H-pyrazolo[4,3-c]pyridin-1-yl]cyclohexyl]methyl]piperazin-1-yl]-N-[4-(3-chloro-4-cyano-phenoxy)cyclohexyl]pyridazine-3-carboxamide] | < 1 | – | ≤ 0.1 | –
7 | CN1C(=O)CCc2cc(-c3cccc4cc(-c5ccc(CCC6CCN(c7ccc(C(=O)N[C@H]8CC[C@H](Oc9ccc(C#N)c(Cl)c9)CC8)nn7)CC6)nc5)ncc34)ccc21 [Compound 58, N-[4-(3-chloro-4-cyano-phenoxy)cyclohexyl]-6-[4-[2-[5-[8-(1-methyl-2-oxo-3,4-dihydroquinolin-6-yl)-3-isoquinolyl]-2-pyridyl]ethyl]-1-piperidyl]pyridazine-3-carboxamide] | 10 to 100 | – | > 100 | –
8 | CC(=O)N1CCc2c(c(N3CCCc4cc(-c5cnn(C)c5)c(C(F)F)cc43)nn2C2CCN(C3CC4(CCC(Oc5ccc(C(=O)N[C@H]6CC[C@H](Oc7ccc(C#N)c(Cl)c7)CC6)nn5)CC4)C3)CC2)C1 (some centres unmarked) [Compound 252, 6-[2-[4-[5-acetyl-3-[7-(difluoromethyl)-6-(1-methylpyrazol-4-yl)-3,4-dihydro-2H-quinolin-1-yl]-6,7-dihydro-4H-pyrazolo[4,3-c]pyridin-1-yl]-1-piperidyl]spiro[3.5]nonan-7-yl]oxy-N-[4-(3-chloro-4-cyano-phenoxy)cyclohexyl]pyridazine-3-carboxamide] | < 1 | – | ≤ 0.1 | –
9 | COc1cc(O[C@H]2CC[C@H](NC(=O)c3ccc(N4CCC(CN5CCC(n6nc(-c7cccc8cc(-c9cnn(C)c9)ncc78)c7c6CCN(C(C)=O)C7)CC5)CC4)cc3)CC2)ccc1C#N [Compound 163, 4-[4-[[4-[5-acetyl-3-[3-(1-methylpyrazol-4-yl)-8-isoquinolyl]-6,7-dihydro-4H-pyrazolo[4,3-c]pyridin-1-yl]-1-piperidyl]methyl]-1-piperidyl]-N-[4-(4-cyano-3-methoxy-phenoxy)cyclohexyl]benzamide] | < 1 | – | ≤ 0.1 | –
10 | CC(=O)N1CCc2c(c(-c3cccc4cc(-c5cnn(C6CCC7(CC6)CCN(c6ccc(C(=O)N[C@H]8CC[C@H](Oc9ccc(C#N)c(Cl)c9)CC8)nn6)CC7)c5)ncc34)nn2C2CCOCC2)C1 [Compound 182] | < 1 | – | ≤ 0.1 | –
11 | C[C@@H]1CC(=O)Nc2cc(C3CCN(CC4CCN(c5ccc(C(=O)N[C@H]6CC[C@H](Oc7ccc(C#N)c(Cl)c7)CC6)nn5)CC4)CC3)cc(-c3ccc4c(c3)c(C3CC3)nn4C)c2N1 [Compound 88, N-[4-(3-chloro-4-cyano-phenoxy)cyclohexyl]-6-[4-[[4-[(4R)-6-(3-cyclopropyl-1-methyl-indazol-5-yl)-4-methyl-2-oxo-1,3,4,5-tetrahydro-1,5-benzodiazepin-8-yl]-1-piperidyl]methyl]-1-piperidyl]pyridazine-3-carboxamide] | 1 to 10 | – | 0.1 to 1 | –
12 | CN1C(=O)CCc2cc(N3CCCc4cc(-c5ccc(CCC6CCN(c7ccc(C(=O)N[C@H]8CC[C@H](Oc9ccc(C#N)c(Cl)c9)CC8)nn7)CC6)nc5)ncc43)ccc21 [Compound 60, N-[4-(3-chloro-4-cyano-phenoxy)cyclohexyl]-6-[4-[2-[5-[1-(1-methyl-2-oxo-3,4-dihydroquinolin-6-yl)-3,4-dihydro-2H-1,7-naphthyridin-6-yl]-2-pyridyl]ethyl]-1-piperidyl] pyridazine-3-carboxamide] | > 100 | – | > 100 | –
13 | CC(=O)N1CCc2c(c(-c3cccc4cc(C)ncc34)nn2C2CCN(CC3CCN(c4ccc(C(=O)N[C@H]5CC[C@H](Oc6ccc(C#N)c(Cl)c6)CC5)nn4)CC3)CC2)C1 [Compound 122, -[4-[[4-[5-acetyl-3-(3-methyl-8-isoquinolyl)-6,7-dihydro-4H-pyrazolo[4,3-c]pyridin-1-yl]-1-piperidyl]methyl]-1-piperidyl]-N-[4-(3-chloro-4-cyano-phenoxy)cyclohexyl]pyridazine-3-carboxamide] | < 1 | – | 0.1 to 1 | –
14 | CC(=O)N1CCc2c(c(N3CCCc4cc(-c5ccc(CCC6CCN(c7ccc(C(=O)N[C@H]8CC[C@H](Oc9ccc(C#N)c(Cl)c9)CC8)nn7)CC6)cc5)c(C(F)F)cc43)nn2C2CCOCC2)C1 [Compound 154, 6-[4-[2-[4-[1-(5-acetyl-1-tetrahydropyran-4-yl-6,7-dihydro-4H-pyrazolo[4,3-c]pyridin-3-yl)-7-(difluoromethyl)-3,4-dihydro-2H-quinolin-6-yl]phenyl]ethyl]-1-piperidyl]-N-[4-(3-chloro-4-cyano-phenoxy)cyclohexyl]pyridazine-3-carboxamide] | < 1 | – | 0.1 to 1 | –
15 | CC(=O)N1CCc2c(c(N3CCCc4cc(-c5cnn(C)c5)c(C(F)F)cc43)nn2C2CCN(C[C@H]3[C@H](C)CN(c4ccc(C(=O)N[C@H]5CC[C@H](Oc6ccc(C#N)c(Cl)c6C)CC5)nn4)C[C@@H]3C)CC2)C1 [Compound 287, 6-[4-[[4-[5-acetyl-3-[7-(difluoromethyl)-6-(1-methylpyrazol-4-yl)-3,4-dihydro-2H-quinolin-1-yl]-6,7-dihydro-4H-pyrazolo[4,3-c]pyridin-1-yl]-1-piperidyl]methyl]-3,5-dimethyl-1-piperidyl]-N-[4-(3-chloro-4-cyano-2-methyl-phenoxy)cyclohexyl]pyridazine-3-carboxamide] | < 1 | – | ≤ 0.1 | –
16 | CC(=O)N1CCc2c(c(N3CCCc4cc(-c5cnn(C)c5)c(C(F)F)cc43)nn2[C@@H]2[C@@H]3C[C@H]2CN(CC2CCN(c4ccc(C(=O)N[C@H]5CC[C@H](Oc6ccc(C#N)c(Cl)c6)CC5)nn4)CC2)C3)C1 [Compound 149, N-[4-(3-chloro-4-cyano-phenoxy)cyclohexyl]-6-[4-[[rac-(1S,5R)-6-[5-acetyl-3-[7-(difluoromethyl)-6-(1-methylpyrazol-4-yl)-3,4-dihydro-2H-quinolin-1-yl]-6,7-dihydro-4H-pyrazolo[4,3-c]pyridin-1-yl]-3-azabicyclo[3.1.1]heptan-3-yl]methyl]-1-piperidyl]pyridazine-3-carboxamide] | – | – | 0.1 to 1 | < 1
